Measured values from PubChem BioAssay (NCI).
Where “and” joins values, the source holds several entries; their conditions need not be identical. Identical values can stand only once.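 In this assay, cells in 96-well plates receive the compound at five concentrations for 48 hours. Endpoints are linearly interpolated between the surrounding concentrations. The concentration for 50% growth inhibition is given as GI50. TGI: concentration producing complete growth inhibition.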

Assays:
Experiment in all cases: NCI anticancer screen, dose series, 48 h
[1] = test system: MALME-3M melanoma
[2] = test system: SNB-75 CNS
[3] = test system: HT29 colon
[4] = test system: HOP-92 NSCLC
[5] = test system: MCF7 breast
[6] = test system: NCI/ADR-RES ovarian
[7] = test system: HL-60(TB) leukemia
[8] = test system: NCI-H23 lung
[9] = test system: ACHN renal
[10] = test system: K-562 leukemia
[11] = test system: A498 renal
[12] = test system: NCI-H522 lung
[13] = test system: OVCAR-4 ovarian
[14] = test system: IGROV1 ovarian
[15] = test system: SN12C renal
[16] = test system: NCI-H226 lung
[17] = test system: SK-MEL-5 melanoma

Structure (SMILES) | TGI [1] | TGI [2] | TGI [3] | TGI [4] | TGI [5] | TGI [6] | TGI [7] | TGI [8] | TGI [9] | TGI [10] | TGI [11] | TGI [12] | TGI [13] | TGI [14] | TGI [15] | TGI [16] | TGI [17] | GI50 [4]
CCOC(=O)c1nc2ccc(C(F)(F)F)cc2nc1Nc1ccc(F)cc1 | > 100 µM | 84.3 µM | > 100 µM | 98.9 µM | > 100 µM | > 100 µM | > 100 µM | > 100 µM | > 100 µM | > 100 µM | > 100 µM | > 100 µM | > 100 µM | > 100 µM | > 100 µM | – | – | –
CCO/C(O)=C(/C(=N)N1CCCC1)C(=O)Nc1cccc(Cl)c1 | > 100 µM | > 100 µM | > 100 µM | – | > 100 µM | > 100 µM | > 100 µM | > 100 µM | > 100 µM | > 100 µM | > 100 µM | > 100 µM | > 100 µM | > 100 µM | > 100 µM | > 100 µM | – | –
CCOC(=O)N(C)C(=C(F)F)C(F)(F)F | 33.5 µM | 93.1 µM | 78.2 µM | 65.2 µM | > 100 µM | > 100 µM | 49.7 µM | 69.8 µM | – | 62.1 µM | – | – | 90.8 µM | 62.4 µM | – | 58.3 µM | 30 µM | –
CN(C)/C=N\c1nncc2[nH]cnc12 | > 100 µM | > 100 µM | > 100 µM | > 100 µM | > 100 µM | > 100 µM | – | > 100 µM | > 100 µM | > 100 µM | > 100 µM | > 100 µM | > 100 µM | > 100 µM | > 100 µM | > 100 µM | > 100 µM | –
Oc1cnc2c(O)cccc2c1 | > 100 µM | 79.9 µM | > 100 µM | > 100 µM | > 100 µM | 66.5 µM | > 100 µM | – | 92.9 µM | > 100 µM | > 100 µM | > 100 µM | – | > 100 µM | > 100 µM | 85.5 µM | – | –
CCCCOCOc1ccccc1P1(=O)COc2ccccc2OC1 | > 100 µM | > 100 µM | > 100 µM | > 100 µM | > 100 µM | > 100 µM | > 100 µM | > 100 µM | > 100 µM | > 100 µM | – | – | > 100 µM | > 100 µM | > 100 µM | – | > 100 µM | –
O=C(O)C1CCCCN1C(=O)Cc1c[nH]c2ccccc12 (stereo unspecified) | > 100 µM | > 100 µM | > 100 µM | > 100 µM | > 100 µM | > 100 µM | > 100 µM | > 100 µM | > 100 µM | > 100 µM | – | > 100 µM | > 100 µM | > 100 µM | > 100 µM | > 100 µM | – | –
CC(=O)OCC1OC(n2c(N)c(C#N)c(C)c(C#N)c2=S)C(OC(C)=O)C(OC(C)=O)C1OC(C)=O (stereo unspecified) | > 100 µM | > 100 µM | > 100 µM | > 100 µM | > 100 µM | > 100 µM | – | > 100 µM | > 100 µM | – | > 100 µM | > 100 µM | > 100 µM | > 100 µM | > 100 µM | > 100 µM | > 100 µM | 43.8 µM and > 100 µM
CC(C)CC(NP(=O)(O)OC1OC(C)C(O)C(O)C1O)C(=O)NC(Cc1c[nH]c2ccccc12)C(=O)O (stereo unspecified) | > 100 µM | > 100 µM | > 100 µM | > 100 µM | > 100 µM | > 100 µM | – | > 100 µM | – | > 100 µM | > 100 µM | > 100 µM | > 100 µM | > 100 µM | > 100 µM | > 100 µM | > 100 µM | –
Nc1ncnc2c1ncn2-c1ccc([N+](=O)[O-])cn1 | – | > 100 µM | > 100 µM | > 100 µM | > 100 µM | > 100 µM | > 100 µM | > 100 µM | > 100 µM | – | > 100 µM | – | > 100 µM | – | > 100 µM | > 100 µM | > 100 µM | –
CCCCC(/C=C\COC1CCCCO1)=C/C(=O)OCC (stereo unspecified) | > 100 µM | > 100 µM | > 100 µM | – | > 100 µM | > 100 µM | 67.5 µM | > 100 µM | > 100 µM | > 100 µM | > 100 µM | > 100 µM | > 100 µM | > 100 µM | > 100 µM | > 100 µM | > 100 µM | –
CCc1cc2c(c3c1CCCC3)CC1(Cc3ccc(C(=O)OC)cc3C1)C2 (stereo unspecified) | > 100 µM | > 100 µM | > 100 µM | > 100 µM | > 100 µM | > 100 µM | 51.6 µM | > 100 µM | > 100 µM | > 100 µM | – | > 100 µM | > 100 µM | > 100 µM | > 100 µM | > 100 µM | > 100 µM | –
CCCC(C)NC(=O)c1ccc(N(C)Cc2cnc3nc(N)nc(N)c3n2)cc1 (stereo unspecified) | 39.3 µM | 56.6 µM | 58.6 µM | – | 78 µM | > 100 µM | > 100 µM | > 100 µM | 92.5 µM | > 100 µM | > 100 µM | – | – | > 100 µM | > 100 µM | 47.6 µM | 37.4 µM | –
COc1cc(C2SCC(=O)N2c2ccc(NC(C)=O)cc2)cc(OC)c1OC (stereo unspecified) | – | – | > 100 µM | > 100 µM | > 100 µM | > 100 µM | > 100 µM | > 100 µM | > 100 µM | > 100 µM | > 100 µM | > 100 µM | > 100 µM | > 100 µM | > 100 µM | > 100 µM | > 100 µM | –
CCOC(=O)c1nc2ccccc2nc1Oc1ccc(C#N)cc1 | > 100 µM | – | > 100 µM | > 100 µM | > 100 µM | > 100 µM | > 100 µM | – | > 100 µM | > 100 µM | > 100 µM | – | > 100 µM | > 100 µM | > 100 µM | > 100 µM | > 100 µM | –
